This assay relates to Staphylococcus aureus. The experiment in a line: Antimicrobial activity against staphylococcus aureus 209P JC-1 incubated for 20 hrs by agar dilution method. Type of assay: functional. (In general: Agar dilution tests growth on a series of plates holding different concentrations.)

Values after ≈ are worked out from the molar mass of the structure shown.

What is called MIC is the lowest concentration found to suppress growth. A higher MIC goes with a need for much substance.

On to `CC1=CC(=O)C[C@@H](C)[C@@]1(C)CC/C(C)=C/CCC1=CC[C@H](C2=CC(=O)OC2)OC1`, for which 51 µg/mL (≈ 128 µM) was the least that counted as inhibitory (MIC).

(Values after ChEMBL document CHEMBL4825678, “Oshimalides A and B, Sesterterpenes of the Manoalide Class from a Luffariella sp. Deep-Sea Marine Sponge: Application of Asymmetric Dihydroxylation in Structure Elucidation” (2021).)
